This is an account of results in ChEMBL document CHEMBL1781983, “Hop (Humulus lupulus)-derived bitter acids as multipotent bioactive compounds” (J Nat Prod, 2009).

Assay [1] concerns Mus musculus. The experiment in a line: Antiinflammatory activity in mouse assessed as inhibition of TPA-induced ear edema measured per ear. The format is functional.
Assay [2] has as its system Chorioallantoic membrane. The experiment in a line: Inhibition of angiogenesis in chick embryo chorioallantoic membranes. The format is functional. Conditions: Gallus gallus.
A short description of assay [3]: Antioxidant activity in human RBC assessed as inhibition of hydrogen peroxide-induced hemolysis after 3 hrs. Type of assay: functional, cell-based. Conditions: erythrocyte.
Assay [4] deals with Osteoclast. Description: Inhibition of osteoporotic lesion formation in ICR mouse osteoclasts bone cells using ivory pieces after 2 days by pit formation assay. Type of assay: functional, cell-based. Conditions: 48 h.
A short description of assay [5]: Antioxidant activity assessed as inhibition of lipid peroxidation. The format is functional.
The target of assay [6] is T1, Prostaglandin G/H synthase 2 (Mus musculus, UniProt Q05769).
T1 sequence (Q05769 whole entry): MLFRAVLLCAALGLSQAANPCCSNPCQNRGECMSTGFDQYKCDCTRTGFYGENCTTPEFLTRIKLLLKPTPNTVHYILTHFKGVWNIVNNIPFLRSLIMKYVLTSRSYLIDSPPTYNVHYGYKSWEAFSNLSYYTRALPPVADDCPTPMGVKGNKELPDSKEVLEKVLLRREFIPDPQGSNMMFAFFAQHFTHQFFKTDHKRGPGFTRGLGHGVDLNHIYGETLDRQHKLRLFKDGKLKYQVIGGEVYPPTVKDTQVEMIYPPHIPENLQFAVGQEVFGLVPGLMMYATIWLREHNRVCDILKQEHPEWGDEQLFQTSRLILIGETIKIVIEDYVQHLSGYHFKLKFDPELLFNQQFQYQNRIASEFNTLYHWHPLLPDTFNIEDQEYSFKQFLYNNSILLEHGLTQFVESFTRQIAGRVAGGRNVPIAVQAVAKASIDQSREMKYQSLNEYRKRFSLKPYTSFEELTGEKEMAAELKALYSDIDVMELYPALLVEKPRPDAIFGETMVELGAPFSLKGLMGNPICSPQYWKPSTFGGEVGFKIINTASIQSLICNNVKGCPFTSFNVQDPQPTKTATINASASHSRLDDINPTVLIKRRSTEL
Description: Inhibition of COX2-mediated PGE2 production in TNF-alpha-induced mouse MC3T3-E1 cells.

Assay [7] in a line: Antiangiogenic activity against bFGF-indeced mouse KOP2.16 cells assessed as reduction in cell growth at 10 uM. The format is functional.
Assay [8] has as its system Radical scavenging activity. Description: Antioxidant activity assessed as DPPH radical scavenging activity. The format is functional.
Assay [9] concerns U-937. Description: Antiproliferative activity against human U937 cells.
In assay [10] the test system is Mus musculus. Description: Antiangiogenic activity in mouse at 0.01%, po for 21 days. Type of assay: functional.

In general, IC50 refers to the concentration that inhibits the measured activity by half. Usually inhibition stands for the relative decrease from the control value, in per cent. As for `CC(C)=CCC1C(=O)C(C(=O)CC(C)C)=C(O)C(O)(CC=C(C)C)C1=O` (centres undefined) [HUMULONE], the ID50 in assay [1] worked out at 0.2 mg. Further, the ED50 in [2] was determined as 1.5 µg. The IC50 was determined as 28 µM in assay [3]; 0.0059 µM in [4]; 7.9 µM in assay [5]; 0.03 µM in assay [6]; 32 µM in [8]; 3.4 µM in assay [9]. Further, in [7], the inhibition at 10 µM came to 20%.

`C[C@]12CCC(=O)C=C1CC[C@@H]1[C@@H]2[C@@H](O)C[C@@]2(C)[C@H]1CC[C@]2(O)C(=O)CO` [HYDROCORTISONE]: in [1], the ID50 is recorded as 0.03 mg.

Take `COc1ccc2c(c1)c(CC(=O)O)c(C)n2C(=O)c1ccc(Cl)cc1` [INDOMETHACIN]: in assay [1], the ID50 amounted to 0.3 mg.

Regarding `CC(C)=CCC1=C(O)C(C(=O)CC(C)C)=C(O)C(CC=C(C)C)(CC=C(C)C)C1=O` [LUPULONE], the “inhibition (INH)” value in assay [10] came to 50%. The results for the half-maximal inhibitory concentration (IC50) in assay [5] and in assay [8] were 39 µM and 25 µM, respectively.
